Ki data for one compound are collected here from patent US8450306B2, “Bradykinin B1-receptor antagonists” (Boehringer Ingelheim International GmbH, priority 2007, dated 2013).

For this test, the target named is T1, hBK1 receptor (Homo sapiens, UniProt P46663).
T1 construct: expressed in transfected cells; host or cells: CHO cells (membrane homogenate)
T1 sequence (P46663 1-353): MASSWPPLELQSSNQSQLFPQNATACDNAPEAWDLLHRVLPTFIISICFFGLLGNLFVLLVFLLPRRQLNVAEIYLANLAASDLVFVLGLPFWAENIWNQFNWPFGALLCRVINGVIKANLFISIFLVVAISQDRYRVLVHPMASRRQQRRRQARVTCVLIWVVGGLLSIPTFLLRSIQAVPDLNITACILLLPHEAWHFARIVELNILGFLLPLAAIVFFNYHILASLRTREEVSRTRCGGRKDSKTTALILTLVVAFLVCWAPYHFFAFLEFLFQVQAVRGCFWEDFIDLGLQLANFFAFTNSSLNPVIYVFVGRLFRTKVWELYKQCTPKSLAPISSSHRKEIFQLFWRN
As to the kind of experiment: hBK1 receptor binding. Conditions: membranes of CHO cells expressing the hBK1 receptor; radioligand 0.5 to 1.0 nM kallidin (DesArg10, Leu9), [3,4-prolyl-3,43H(N)]; 60 minutes, room temperature. Here is the method:
Description of the Method of hBK1 Receptor Binding
CHO cells expressing the hBK1 receptor are cultivated in Dulbecco's modified medium. The medium from confluent cultures is removed and the cells are washed with PBS buffer, scraped off and isolated by centrifugation. The cells are then homogenized in suspension and the homogenate is centrifuged and resuspended. The protein content is determined and the membrane preparation obtained in this manner is then frozen at −80° C.
After thawing, 200 μl of the homogenate (50 to 100 μg of proteins/assay) are incubated at room temperature with 0.5 to 1.0 nM of kallidin (DesArg10, Leu9), [3,4-prolyl-3,43H(N)] and increasing concentrations of the test substance in a total volume of 250 μl for 60 minutes. The incubation is terminated by rapid filtration through GF/B glass fibre filters which had been pretreated with polyethyleneimine (0.3%). The protein-bound radioactivity is measured in a TopCount NXT. Non-specific binding is defined as radioactivity bound in the presence of 1.0 μM of kallidin (DesArg10, Leu9), [3,4-prolyl-3,43H(N)]. The concentration/binding curve is analysed using a computer-assisted nonlinear curve fitting. The K which corresponds to the test substance is determined using the data obtained in this manner. […]

Molecules are shown by their SMILES.

Compound `COc1cc(C)c(S(=O)(=O)N(C)CCOCC(=O)N(C)[C@@H]2CCN(C3CCN(C)CC3)C2)c(C)c1` [(394)] displayed a Ki of 1.04 nM.

As usually defined, the Ki is the dissociation constant of the complex between target and ligand, obtained from inhibition or displacement. A high value points to weaker binding.
